Data reported in patent US12678463B2, “Activated mesenchymal stem cells for treating limb ischemia” (Cellin Technologies OÜ, priority 2019, dated 2026).

Columns and labels:
Assay type in all cases: cell-based, human
AdMSCs [1] = assay: ELISA of secreted inflammatory factors in culture media of AdMSCs; settings: for secreted IL6 concentration / secreted CCL2 concentration / secreted IL-1RN concentration / secreted CXCL8 concentration: AIDs-treated 24 h; for secreted IL6 concentration: control 40 ± 2; for secreted CCL2 concentration: control 96 ± 3.2; for secreted IL-1RN concentration: control 2.3 ± 0.03; for secreted CXCL8 concentration: control 277 ± 12.7
AdMSCs [2] = assay: Cell cycle analysis by propidium iodide staining and flow cytometry; settings: 24 h after treatment; for percentage of cells in G0/G1 phase: non-treated control 82%, paracetamol 4.4 mM, diclofenac 10 μM, metamizole 10 μM, ketoprofen 50 μM, prednisolone 0.1 μM; for percentage of cells in G2/M cell cycle phase: vs non-treated control
Protocol: FIG. 2. Cell cycle analysis of control and AIDs-treated AdMSCs. AIDs-treated and control AdMSCs were stained with propidium iodide (PI) 24 h after treatments and analyzed using flow cytometry by BD Accuri C6.
The percentage of cells in G0/1 phase was lower in the cultures treated with metamizole (Analgin™) (65%) and paracetamol (71%), whereas the percentage of cells in G2/M cell cycle phase was increased in these cultures (FIG. 2).

LPS-stimulated AdMSCs = assay: RT-qPCR of inflammatory gene mRNA in LPS-stimulated AIDs-treated AdMSCs; settings: 24 hours exposure, vs LPS-treated cells
Protocol: FIG. 4. Relative mRNA expression of inflammatory genes in LPS-stimulated and AIDs-treated for 24 h AdMSCs represented as heat map. Expression levels were measured in triplicates by RT-qPCR and normalized with GAPDH mRNA expression levels. Data from LPS-stimulated AIDs-treated AdMSCs were calculated as a relative fold difference compared to LPS-treated cells and converted to the log scale. The quantitative changes in gene expression are represented by shading: darker shade indicates up-regulation, whereas lighter shade indicates down-regulation. Expression data were visualized using GENE-E software.
FIG. 6. Heat map of the expression profile of inflammatory genes in LPS-stimulated and AIDs-treated AdMSCs. Inflammatory genes mRNA expression levels of LPS-stimulated and AIDs-treated for 48 h (A) and 72 h (B) AdMSCs were calculated as a fold difference compared to LPS-treated AdMSCs and represented as heat maps. Expression levels of inflammatory gene mRNAs were measured in triplicates by RT-qPCR, normalized with GAPDH mRNA levels and converted to the log scale. Positive values (darker shade) indicate higher expression, and negative values (lighter shade) lower expression relatively to the control LPS-treated AdMSCs.
Effects of AIDs on mRNA expression of inflammatory cytokines in AdMSCs were analyzed using RT-qPCR technique. Analyses results were visualized as a heat map graph using GENE-E platform (FIG. 4). Short-term treatment of AdMSCs by AIDs affected the expression of inflammatory cytokines. […] Expression of pro-inflammatory cytokines CCL2, CCL3, TNF, IL6, ILIA and ILIB was suppressed by ketoprofen and metamizole (Analgin™) treatments.
Effects of repeated AIDs treatments (48 and 72 h) on mRNA expression of cytokines in AdMSCs were analyzed using RT-qPCR technique. Differential expression of cytokine genes is represented as a heat map in FIG. 6. […] Upon exposure to various drugs, complex expression pattern of pro- and anti-inflammatory factors were observed. […] However, the stable induced expression of anti-inflammatory factors (IL4, TNFAIP6, IDO1) was not observed.

AdMSCs [3] = assay: RT-qPCR of angiogenic marker mRNA in AIDs-treated AdMSCs; settings: 24 h treatment, relative to untreated AdMSCs, normalized with GAPDH
Protocol: VEGFA, HGF, bFGF and TEK mRNA expression levels in AdMSCs treated with AIDs for 24 h were measured in triplicates by RT-qPCR and normalized with GAPDH mRNA expression levels. Data from AIDs-treated cells were calculated relatively to control untreated AdMSCs and results are represented in a log scale. Positive values indicated increased and negative values decreased mRNA levels compared to control untreated cells.
Numerous soluble factors produced by MSCs are involved in the regulation of angiogenesis and neovascularisation in vivo (Estrada et al., 2009). […] The effect of the AIDs on expression of angiogenic factors in AdMSCs was analyzed. Different AIDs affected the expression of angiogenic factors differently either stimulating or suppressing their expression.

AdMSCs [4] = assay: ELISA of secreted inflammatory factors in culture media of AdMSCs; settings: for effect on CCL2 level / effect on CXCL8 level / effect on IL6 level: LPS-stimulated AdMSC cultures, 24 h; for secreted IL-1RN concentration / secreted IL6 concentration / secreted CXCL8 concentration / secreted CCL2 concentration: LPS-stimulated, AIDs-treated 24 h; for secreted IL-1RN concentration: control + LPS 61 ± 18; for secreted IL6 concentration: control + LPS 210 ± 22; for secreted CXCL8 concentration: control + LPS 2373 ± 109; for secreted CCL2 concentration: control + LPS 461 ± 19.9; for IL-1RN level in culture media over time / IL6 level in culture media over time: LPS-treated cultures, single treatment; for IL-1RN level in culture media over time: serum-deficient, 24, 48 and 72 h; for IL6 level in culture media over time: serum-deficient, 24, 48 and 72 h (prednisolone: at 72 h)
Protocol: FIG. 5. Changes of inflammatory factors in culture media. Secreted IL6, CXCL8, CCL2 and IL1RN levels were measured from the conditional media of control, LPS-stimulated, and LPS-stimulated and paracetamol or prednisolone-treated AdMSCs by ELISA at 24, 48 and 72 h and represented as normalized to control 24 h probe.
To mimic inflammatory conditions, AdMSCs were exposed to lipopolysaccharide (LPS) prior to AIDs treatments. […] Then, LPS-treated AdMSCs were exposed to AIDs to study their effect on cytokines in inflammatory conditions.

AdMSCs [5] = assay: WST-1 metabolic activity assay of AdMSCs treated with anti-inflammatory drugs; settings: first 24 hours; metamizole 10 μM
Protocol: AdMSCs metabolic activity was measured at 1, 2, 3 and 5 days after the treatments.
During the first 48 hours, all analyzed AIDs stimulated the metabolic activity of AdMSCs.

[6] = standard culture conditions, no LPS
[7] = LPS-treated cultures, single treatment, serum-deficient, 24, 48 and 72 h

SMILES | secreted IL6 concentration (AdMSCs [1]; no LPS) [pg/mL] | secreted CCL2 concentration (AdMSCs [1]; no LPS) [pg/mL] | effect on synthesis and secretion of immunomodulatory factors (AdMSCs [1]; [6]) | percentage of cells in G0/G1 phase (AdMSCs [2]) [%] | TGFβ1 and TGFβ3 mRNA expression (LPS-stimulated AdMSCs) | TGFβ2 mRNA expression (LPS-stimulated AdMSCs) | HGF mRNA expression (AdMSCs [3]) | TEK mRNA expression (AdMSCs [3]) | VEGFA mRNA expression (AdMSCs [3]) | bFGF mRNA expression (AdMSCs [3]) | effect on CCL2 level (AdMSCs [4]) | effect on CXCL8 level (AdMSCs [4]) | effect on IL6 level (AdMSCs [4]) | secreted IL-1RN concentration (AdMSCs [4]) [pg/mL] | secreted IL6 concentration (AdMSCs [4]) [pg/mL] | secreted CXCL8 concentration (AdMSCs [4]) [pg/mL] | secreted IL-1RN concentration (AdMSCs [1]; no LPS) [pg/mL] | secreted CXCL8 concentration (AdMSCs [1]; no LPS) [pg/mL] | percentage of cells in G2/M cell cycle phase (AdMSCs [2]) | secreted CCL2 concentration (AdMSCs [4]) [pg/mL] | other results
O=C(O)Cc1ccccc1Nc1c(Cl)cccc1Cl [diclofenac] | 50 ± 1 | 64 ± 8.4 | minor effect | 81 | suppressed | stimulated | no effect | no effect | no effect | no effect | no effect | stimulated | stimulated | 17 ± 2 | 390 ± 4 | 2807 ± 361 |  |  |  |  | 
Cc1c(N(C)CS(=O)(=O)O)c(=O)n(-c2ccccc2)n1C [metamizole (Analgin™), metamizole] | 30 ± 1 | 109 ± 3.2 | minor effect | 65 |  |  | up-regulation | up-regulation | up-regulation | up-regulation | Inhibitory effect |  |  | 12 ± 1 | 180 ± 29 | 1816 ± 121 | 3.9 ± 0.03 | 341 ± 4.7 | increased | 313 ± 43.9 | effect on IL1RN expression (AdMSCs [1]; LPS-stimulated AdMSC cultures, 24 h): Inhibitory effect; expression of pro-inflammatory cytokines CCL2, CCL3, TNF, IL6, ILIA and ILIB (mRNA) (LPS-stimulated AdMSCs): suppressed; cellular metabolism (WST-1 metabolic activity) (AdMSCs [5]): significantly stimulated
CC(C(=O)O)c1cccc(C(=O)c2ccccc2)c1 (centres unmarked) [ketoprofen] | 10 ± 1 | 165 ± 23.4 | minor effect | 80 |  |  | up-regulation | up-regulation | up-regulation | up-regulation | no effect | stimulated | stimulated | 12 ± 0.5 | 440 ± 143 | 2509 ± 68 | 0 | 301 ± 0.3 |  | 451 ± 31.8 | expression of pro-inflammatory cytokines CCL2, CCL3, TNF, IL6, ILIA and ILIB (mRNA) (LPS-stimulated AdMSCs): suppressed
C[C@]12C=CC(=O)C=C1CC[C@@H]1[C@@H]2[C@@H](O)C[C@@]2(C)[C@H]1CC[C@]2(O)C(=O)CO [prednisolone] | 30 ± 2 | 100 ± 12.2 | minor effect | 77 |  |  | inhibited | opposite effect | inhibited | opposite effect |  | significantly reduced | significantly reduced | 33 ± 2 | 50 ± 12 | 402 ± 51 | 7.3 ± 0.20 | 35 ± 0.1 |  | 314 ± 23.2 | CCL2 level in culture media over time (AdMSCs [1]; [7]): significantly stimulated; IL-1RN level in culture media over time (AdMSCs [4]): inhibited; IL6 level in culture media over time (AdMSCs [4]): moderately induced
CC(=O)Nc1ccc(O)cc1 [paracetamol] | 0 | 8 ± 0.4 | minor effect | 71 | suppressed | stimulated | inhibited | strongly suppressed | inhibited | induced |  | significantly reduced | significantly reduced | 33 ± 9 | 90 ± 14 | 623 ± 41 | 11.0 ± 0.65 | 11 ± 0.1 | increased | 270 ± 29.9 | CCL2 level in culture media over time (AdMSCs [1]; [7]): lowered; CXCL8 level in culture media over time (AdMSCs [1]; [7]): no significant effects; CCL2 level in culture media compared to untreated cells (AdMSCs [1]; [6]): significant reduction; CXCL8/IL8 level in culture media compared to untreated cells (AdMSCs [1]; [6]): significant reduction; IL6 level in culture media compared to untreated cells (AdMSCs [1]; [6]): significant reduction; IL-1RN level in culture media over time (AdMSCs [4]): no significant effects; IL6 level in culture media over time (AdMSCs [4]): no significant effects
